Source: paper PMC12067278, “A responsive living material prepared by diffusion reveals extracellular enzyme activity of cyanobacteria” (Proceedings of the National Academy of Sciences of the …, 2025)

Target: T1, AmiX (Synpcc7942_1548 gene product, putative amidase) (Synechococcus elongatus, UniProt Q31MZ1)
T1 construct: expressed in E. coli BL21, clarified lysate assayed; ORF PCR product ~1,320 bp
T1 sequence (Q31MZ1 1-439 limits assumed): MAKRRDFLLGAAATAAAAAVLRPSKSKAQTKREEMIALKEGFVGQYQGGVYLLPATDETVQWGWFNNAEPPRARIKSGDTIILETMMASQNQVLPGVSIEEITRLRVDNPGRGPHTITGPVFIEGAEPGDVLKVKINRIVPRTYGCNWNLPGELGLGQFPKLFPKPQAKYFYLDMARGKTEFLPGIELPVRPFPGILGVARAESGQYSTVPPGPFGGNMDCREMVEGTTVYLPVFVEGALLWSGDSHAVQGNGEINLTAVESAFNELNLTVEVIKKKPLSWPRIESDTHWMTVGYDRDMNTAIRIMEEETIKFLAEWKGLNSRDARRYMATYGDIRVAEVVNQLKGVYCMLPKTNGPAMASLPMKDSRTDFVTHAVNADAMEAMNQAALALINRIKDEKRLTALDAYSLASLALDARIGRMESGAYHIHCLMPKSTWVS
Experiment: NBD-Cl amine-detection fluorescence assay ([…] nm), E. coli lysate
Assay type: biochemical
Settings: 50 mM potassium phosphate pH 7.5, 2.5 mM NIPAm (50 uL of 50 mM in 1 mL), 20 h, high lysate background

Compound: C=CC(=O)NC(C)C [NIPAm, N-isopropylacrylamide]
- NBD-Cl amine-detection fluorescence assay (485/538 nm), E. coli lysate: the lysate containing both the S. elongatus amidase and NIPAm produced significantly more fluorescence
